Test results as given in patent US11242344B2, “(4-hydroxypyrrolidin-2-yl)-heterocyclic compounds and methods of use thereof” (Genentech, Inc., priority 2017, dated 2022).

Tests used:
[1] = biological target: NanoLuc VHL fusion protein (Homo sapiens (Human), UniProt P40337); assay: VHL HEK-293 BRET Assay (NanoBRET Target Engagement); assay type: cell-based; conditions: geometric mean where more than one measurement
Procedure: The VHL NanoBRET™ Target Engagement Assay analyzes the apparent affinity of test compounds for VHL in cells by competitive displacement of a VHL NanoBRET™ tracer reversibly bound to a NanoLuc® VHL fusion protein stably expressed in the cells. Test compounds were transferred to the assay plate (384 Well White Non-Binding Corning Assay Plates (Corning-3574)) using an Echo 555 Liquid Handler (Labcyte) in 2.5 nL increments and, as appropriate, intermediate stock concentrations of compounds, in order to prepare a titration series. 50 nL of control compound (10 mM; parental unlabeled VHL antagonist; see structure below) and 50 nL of DMSO (negative control) were dispensed into the appropriate control wells. DMSO was backfilled to a final volume of 50 nL as required. 50 nl per well of 1 mM VHL NanoBRET™ Tracer in DMSO (NanoBRET™ Tracer-PEG2-590 (see structure below)) was transferred into each well using an Echo 555 (ultimately yielding a final concentration of 1 uM). HEK 293 RT VHL-NanoLuc® stable cells were cultured in DMEM High Glucose with Pyruvate, 10% fetal bovine serum, 2 mg/mL of Geneticin Selective Antibiotic (50 mg/ml) and 2 mM HEPES (1 M). Cells were seeded in Opti-MEM (Life Technologies-11058-021), 1.7×10^5 cells/mL, 40 μl per well into the assay plate, centrifuged at 500 rpm for 30 seconds and incubated for 2 hours. Max Signal control wells consisted of DMSO only treated wells. Minimum Signal control wells contained of 10 uM parental unlabeled VHL antagonist (control compound—see structure below). 3× Complete Substrate plus Inhibitor Solution was prepared in Opti-MEM (consists of a 1:166 dilution of NanoBRET™ Nano-Glo® Substrate plus a 1:500 dilution of Extracellular NanoLuc® Inhibitor in Opti-MEM), and 20 ul was dispensed into each well of the 384-well plate and centrifuged at 1000 rpm for 1 minute, then incubated for 2 minutes at room temperature. Background Signal control wells were prepared without tracer for background correction steps. Plates were read using a PerkinElmer Envision Reader (model 2104-0020) equipped with Luminescence option (Mirror: BRET2 Enh (PE Barcode 659), Emission Filter: Omega 610LP (Barcode 504), 2nd Emission Filter: Umbelliferone 460 (Barcode 207), Measurement height: 6.5 mm, Measurement time: 1 s). The raw BRET ratio values were calculated by dividing the acceptor emission value (610 nm) by the donor emission value (460 nm) for each sample. To correct for background, the BRET ratio in the absence of tracer (average of no-tracer control samples) was subtracted from the BRET ratio of each sample. Raw BRET units were converted to milliBRET units (mBU) by multiplying each raw BRET value by 1,000. The normalized NanoBRET™ signal was calculated relative to the Max Signal control wells (DMSO treated control wells) and the Minimum Signal control wells. Percentage inhibition was calculated relative to the Minimum Signal control and Maximum Signal control wells. IC50 values were derived by four parameter curve fitting using the Robust method.

[2] = biological target: VHL co-expressed with Elongins B and C (Homo sapiens (Human), UniProt P40337); assay: Surface Plasmon Resonance Assay; assay type: binding; conditions: SPR measured VHL affinity; geometric mean where more than one measurement
Procedure: Using a Biacore T200, […] tagged VHL co-expressed with Elongins B and C were immobilized to a Biacore SA chip in running buffer without DMSO. Compounds were tested individually at varying concentrations in running buffer (50 mM HEPES pH 7.2, 150 mM NaCl, 0.5 mM TCEP, 0.001% Tween 20, 0.2% PEG3350, 2% DMSO) at 20° C. Sensorgrams were run in order from low to high concentration using a flow rate of 80 μL/min. Association and disassociation times were varied depending on the estimated potency of the compound tested. […] Galdeano et al, J. Med. Chem. 2014, 57, 8657-8663, herein incorporated by reference) which retained greater than 75% of the activity over the course of the run. Analysis of the binding curves and determination of the kinetic parameters were done using evaluation software (Version 2.0, Biacore).

[3] = biological target: VHL Elongin B/C complex (Homo sapiens (Human), UniProt P40337); assay: Fluorescence Polarization (FP) VHL Binding Assay; conditions: VHL binding, FP assay; geometric mean where more than one measurement
Procedure: The binding of test compounds to the VHL Elongin B/C complex was measured using a fluorescence polarization tracer competition assay. The VHL/Elongin B/C protein complex used in the assay was generated as follows. The coding region for amino acids E55-D213 of human VHL with N-terminal His6 tag with a TEV-protease cleavage site was co-expressed with Elongin B (residues M1-Q118) and Elongin C (Residues M17-C112) in E. coli. […] The purified VHL/Elongin B/C complex was dialyzed into formulation buffer: 20 mM Bis-Tris pH7.0, 150 mM NaCl, 1 mM DTT. A VHL fluorescence polarization probe (prepared in Example 91), consisted of a VHL ligand coupled to carboxytetramethylrhodamine (TAMRA); […] Compounds were prepared as a serial dilution in DMSO at a concentration 25-fold higher than the final desired concentration and acoustically dispensed (400 nl) into a ProxiPlate-384 Plus F, Black 384-shallow well Microplate (Part Number 6008260). DMSO was dispensed into wells designated for “VHL control” (without compound) wells. The “Assay Buffer” consisted of 50 mM Tris pH 8.0, 120 mM NaCl, 0.005% Nonidet P-40, and 1% DMSO (v/v). Assay Buffer containing […] VHL Elongin B/C complex was prepared and 5 μl dispensed using a BioRapTR (Beckman Coulter) into each well of the assay plate. Assay Buffer was also dispensed into “no VHL control” wells using the same method. A “pre-assay” fluorescence measurement was made using an Infinite® M1000 (Tecan) plate reader (Excitation 530 nm, Emission 574 nm, Bandwidth 10 nm). Assay Buffer containing 3.34 nM of the VHL FP probe was prepared in Assay Buffer and 5 μl dispensed into each well of the assay plate using a BioRapTR (Beckman Coulter). The final VHL/Elongin B/C protein concentration is 2.64 nM and the final probe concentration is 1.67 nM. Assay plates were briefly centrifuged and incubated for 1 hour at room temperature. “Post-assay” fluorescence polarization measurements were made as described for the “pre-assay” fluorescence measurement. Fluorescence polarization was calculated for each sample; taking into account the “pre-assay” fluorescence measurements and subtracting the fluorescence signal of the compound/VHL only (“pre-assay”) measurements from the “post-assay” fluorescence polarization measurements, for each plane of polarization. The data were analyzed using Genedata Screener software and normalized to the “no VHL control” and “VHL control” (without compound). IC50 values were calculated using a four parameter curve fit (Robust method).

Sequence of NanoLuc VHL fusion protein (P40337 whole entry, looked up, the tested form may be a part): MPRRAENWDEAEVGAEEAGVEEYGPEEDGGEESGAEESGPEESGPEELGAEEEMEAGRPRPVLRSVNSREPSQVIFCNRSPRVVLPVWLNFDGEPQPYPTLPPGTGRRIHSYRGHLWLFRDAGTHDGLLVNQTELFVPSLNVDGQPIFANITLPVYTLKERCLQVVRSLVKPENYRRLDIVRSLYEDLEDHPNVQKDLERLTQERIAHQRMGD
Sequence of NanoLuc VHL fusion protein (Q15370 whole entry partner, looked up, the tested form may be a part): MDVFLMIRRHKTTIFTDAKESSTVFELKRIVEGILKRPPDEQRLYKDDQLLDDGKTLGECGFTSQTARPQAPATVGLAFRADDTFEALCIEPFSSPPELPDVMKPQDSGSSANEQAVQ
Sequence of NanoLuc VHL fusion protein (Q15369 whole entry partner, looked up, the tested form may be a part): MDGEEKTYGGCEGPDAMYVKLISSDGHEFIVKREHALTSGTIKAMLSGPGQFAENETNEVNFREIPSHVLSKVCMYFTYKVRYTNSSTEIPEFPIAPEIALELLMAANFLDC
Sequence of VHL Elongin B/C complex (P40337 whole entry, looked up, the tested form may be a part): as the sequence (P40337 whole entry, looked up, the tested form may be a part) above
Sequence of VHL Elongin B/C complex (Q15370 whole entry partner, looked up, the tested form may be a part): as the sequence (Q15370 whole entry partner, looked up, the tested form may be a part) above
Sequence of VHL Elongin B/C complex (Q15369 whole entry partner, looked up, the tested form may be a part): as the sequence (Q15369 whole entry partner, looked up, the tested form may be a part) above
Sequence of VHL co-expressed with Elongins B and C (P40337 whole entry, looked up): as the sequence (P40337 whole entry, looked up, the tested form may be a part) above
Sequence of VHL co-expressed with Elongins B and C (Q15370 whole entry partner, looked up): as the sequence (Q15370 whole entry partner, looked up, the tested form may be a part) above
Sequence of VHL co-expressed with Elongins B and C (Q15369 whole entry partner, looked up): as the sequence (Q15369 whole entry partner, looked up, the tested form may be a part) above

SMILES | IC50 [1] | Kd [2] | IC50 [3]
Cc1ncsc1-c1ccc([C@]2(C)NC(C3C[C@@H](O)CN3C(=O)C3N(S(C)(=O)=O)CCC3(C)C)=NC2=O)cc1 (single isomer, unassigned) [Example 125.3] | 100 µM | ≥ 150 µM | ≥ 400 µM
CC/C(=C(\c1ccc(O)cc1)c1ccc(OCCN(C)C(=O)CCCOCCOc2cc(C(C(=O)N3C[C@H](O)CC3C3=NC(=O)[C@](C)(c4ccc(-c5scnc5C)cc4)N3)C(C)C)on2)cc1)c1ccccc1 (single isomer, unassigned) [Example 1003.2] | ≥ 100 µM | 67.1 µM | ≥ 400 µM
Cc1cc([C@H](C(=O)N2C[C@H](O)C[C@H]2C2=NO[C@@](C)(c3ccc(Br)cc3)N2)C(C)C)on1 (mixture of isomers) [Example 113.2, (2S)-1-((2S,4R)-2-(5-(4-Bromophenyl)-5-methyl-4,5-dihydro-1,2,4-oxadiazol-3-yl)-4-hydroxypyrrolidin-1-yl)-3-methyl-2-(3-methylisoxazol-5-yl)butan-1-one and (2R)-1-((2S,4R)-2-(5-(4-Bromophenyl)-5-methyl-4,5-dihydro-1,2,4-oxadiazol-3-yl)-4-hydroxypyrrolidin-1-yl)-3-methyl-2-(3-methylisoxazol-5-yl)butan-1-one] | 2.94 µM | 2.49 µM | 6.3 µM
Cc1cc([C@H](C(=O)N2C[C@H](O)C[C@H]2C2=NOC(c3ccc(Br)cc3)(C(F)(F)F)N2)C(C)C)on1 (single isomer, unassigned) [Example 133.4] | 52.3 µM | 17.4 µM | 54.9 µM
CCN1N=C([C@@H]2C[C@@H](O)CN2C(=O)C(c2cc(C)no2)C(C)C)NC1(C)C (single isomer, unassigned) [Example 115.1] | 100 µM | 150 µM | ≥ 400 µM
Cc1cc([C@H](C(=O)N2C[C@H](O)C[C@H]2C2=NO[C@](C)(c3ccc(Br)cc3)N2)C(C)C)on1 (mixture of isomers) [Example 113.4, (2S)-1-((2S,4R)-2-(5-(4-Bromophenyl)-5-methyl-4,5-dihydro-1,2,4-oxadiazol-3-yl)-4-hydroxypyrrolidin-1-yl)-3-methyl-2-(3-methylisoxazol-5-yl)butan-1-one and (2R)-1-((2S,4R)-2-(5-(4-Bromophenyl)-5-methyl-4,5-dihydro-1,2,4-oxadiazol-3-yl)-4-hydroxypyrrolidin-1-yl)-3-methyl-2-(3-methylisoxazol-5-yl)butan-1-one] | 2.92 µM | 3.17 µM | 2.28 µM
CC/C(=C(\c1ccc(O)cc1)c1ccc(OCCN(C)C(=O)CCCOCCOc2cc(C(C(=O)N3C[C@H](O)CC3C3=NC(=O)[C@](C)(c4ccc(-c5scnc5C)cc4)N3)C(C)C)on2)cc1)c1ccccc1 (single isomer, unassigned) [Example 1003.3] | 51.6 µM | 67.1 µM | 30.4 µM
Cc1ncsc1-c1ccc([C@]2(C)NC(C3C[C@@H](O)CN3C(=O)C(c3cnn(C)c3)C(C)C)=NC2=O)cc1 (single isomer, unassigned) [Example 110.3] | ≥ 100 µM | 150 µM | ≥ 400 µM
Cc1ncsc1-c1ccc([C@]2(C)NC(C3C[C@@H](O)CN3C(=O)[C@@H](NC(=O)C3(C#N)CC3)C(C)(C)C)=NC2=O)cc1 (single isomer, unassigned) [Example 111.2] | 5.11 µM | 1.86 µM | 4.97 µM
Cc1cc([C@@H](C(=O)N2C[C@H](O)C[C@H]2C2=NOC3(CCc4ccccc43)N2)C(C)C)on1 (single isomer, unassigned) [Example 130.2] | 100 µM | 121 µM | 362 µM

Second part, the compound after the results:

IC50 [1] | Kd [2] | IC50 [3] | SMILES
100 µM | 150 µM | ≥ 400 µM | Cc1cc(C(C(=O)N2C[C@H](O)CC2C2=NC(=O)[C@](C)(c3ccc(-c4scnc4C)cc3)N2)C(C)C)sn1 (single isomer, unassigned) [Example 119.2]
≥ 100 µM | 104 µM | ≥ 400 µM | Cc1ncsc1-c1ccc([C@]2(C)NC(C3C[C@@H](O)CN3C(=O)C(c3cnn(C)c3)C(C)C)=NC2=O)cc1 (single isomer, unassigned) [Example 110.2]
34.5 µM | 4.24 µM | 17.5 µM | Cc1cc([C@H](C(=O)N2C[C@H](O)C[C@H]2C2=NOC3(CCc4ccccc43)N2)C(C)C)on1 (single isomer, unassigned) [Example 130.4]
41.3 µM | 57.4 µM | 48.2 µM | Cc1cc(C(C(=O)N2C[C@H](O)C[C@H]2C2=NN(CC(F)(F)F)C(C)(C)N2)C(C)C)on1 (single isomer, unassigned) [Example 134.2]
16.2 µM | 4.69 µM | 17.6 µM | Cc1cc([C@H](C(=O)N2C[C@H](O)C[C@H]2C2=NOC3(CCc4ccccc43)N2)C(C)C)on1 (single isomer, unassigned) [Example 130.3]
39 µM | 6.83 µM | 16.7 µM | Cc1ncsc1-c1ccc([C@]2(C)NC(C3C[C@@H](O)CN3C(=O)[C@@H]3CCCCN3S(C)(=O)=O)=NC2=O)cc1 (single isomer, unassigned) [Example 122.2]
100 µM | 55.6 µM | ≥ 400 µM | Cc1ncsc1-c1ccc([C@]2(C)NC(C3C[C@@H](O)CN3C(=O)[C@H](C(C)C)N3Cc4ccccc4C3=O)=NC2=O)cc1 (single isomer, unassigned) [Example 123.1]
100 µM | ≥ 150 µM | ≥ 400 µM | CC(=O)N1CCCCC1C(=O)N1C[C@H](O)CC1C1=NC(=O)[C@](C)(c2ccc(-c3scnc3C)cc2)N1 (single isomer, unassigned) [Example 124.4]
